Reference: ChEMBL document CHEMBL1201862, “PubChem BioAssay data set” (2004)
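Dose response: 5 concentrations. Exposure: 48 h. Format: 96-well plates. Endpoint: linear interpolation; highest concentration if not reached. GI50 is the concentration that inhibits growth by half.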 The source made the active and inactive calls. No stated cut-off is given here; in the data, active = GI50 up to about 1.1 µM and inactive = higher.

Experiments:
Experiment in all cases: inhibition of tumour cell growth, NCI panel, 48 h
MOLT-4 = tested on: MOLT-4
HCC 2998 = tested on: HCC 2998
TK-10 = tested on: TK-10
MDA-MB-231 = tested on: MDA-MB-231
MCF7 = tested on: MCF7
RPMI-8226 = tested on: RPMI-8226
SR = tested on: SR
UACC-62 = tested on: UACC-62
HOP-92 = tested on: HOP-92
OVCAR-5 = tested on: OVCAR-5
NCI-H226 = tested on: NCI-H226
A549 = tested on: A549
OVCAR-3 = tested on: OVCAR-3
IGROV-1 = tested on: IGROV-1
LOX IMVI = tested on: LOX IMVI
SNB-19 = tested on: SNB-19
PC-3 = tested on: PC-3
EKVX = tested on: EKVX
HCT-116 = tested on: HCT-116
HOP-18 = tested on: HOP-18

Row | SMILES | GI50 (MOLT-4) | GI50 (HCC 2998) | GI50 (TK-10) | GI50 (MDA-MB-231) | GI50 (MCF7) | GI50 (RPMI-8226) | GI50 (SR) | GI50 (UACC-62) | GI50 (HOP-92) | GI50 (OVCAR-5) | GI50 (NCI-H226) | GI50 (A549) | GI50 (OVCAR-3) | GI50 (IGROV-1) | GI50 (LOX IMVI) | GI50 (SNB-19) | GI50 (PC-3) | GI50 (EKVX) | GI50 (HCT-116) | GI50 (HOP-18)
1 | CN(C)CCNC(=O)c1ccc(NCCCN(C)CCCNc2ccc(C(=O)NCCN(C)C)c3nc4ccc([N+](=O)[O-])cc4c(O)c23)c2c(O)c3cc([N+](=O)[O-])ccc3nc12 | < 0.01 µM (active) | 0.0347 µM (active) | 0.124 µM (active) | 0.05 µM (active) | < 0.01 µM (active) | < 0.01 µM (active) | 0.0311 µM (active) | 0.0538 µM (active) | 0.0431 µM (active) | 0.158 µM (active) | < 0.01 µM (active) | < 0.01 µM (active) | 0.186 µM (active) | < 0.01 µM (active) | < 0.01 µM (active) | < 0.0146 µM (active) | < 0.01 µM (active) | 0.301 µM (active) | < 0.01 µM (active) | –
2 | Cc1cc(NS(=O)(=O)c2ccc(NC(NC(=O)C(C(F)(F)F)C(F)(F)F)(C(F)(F)F)C(F)(F)F)cc2)no1 | > 100 µM (inactive) | > 100 µM (inactive) | > 100 µM (inactive) | > 100 µM (inactive) | > 100 µM (inactive) | > 100 µM (inactive) | > 100 µM (inactive) | > 100 µM (inactive) | > 100 µM (inactive) | > 100 µM (inactive) | > 100 µM (inactive) | > 100 µM (inactive) | > 100 µM (inactive) | > 100 µM (inactive) | > 100 µM (inactive) | > 100 µM (inactive) | > 100 µM (inactive) | > 100 µM (inactive) | > 100 µM (inactive) | –
3 | CC(=O)c1c(C)[n+]([O-])c2cc(C)c(C)cc2[n+]1[O-] | > 100 µM (inactive) | > 100 µM (inactive) | > 100 µM (inactive) | – | – | > 100 µM (inactive) | – | > 100 µM (inactive) | – | > 100 µM (inactive) | > 100 µM (inactive) | > 100 µM (inactive) | > 100 µM (inactive) | > 100 µM (inactive) | > 100 µM (inactive) | > 100 µM (inactive) | – | > 100 µM (inactive) | – | > 100 µM (inactive)
4 | O=C1OCc2nc3c(c(-c4ccccc4C(F)(F)F)c21)C(=O)OC3 | > 100 µM (inactive) | > 100 µM (inactive) | > 100 µM (inactive) | – | – | > 100 µM (inactive) | > 100 µM (inactive) | > 100 µM (inactive) | > 100 µM (inactive) | > 100 µM (inactive) | – | > 100 µM (inactive) | > 100 µM (inactive) | > 100 µM (inactive) | > 100 µM (inactive) | > 100 µM (inactive) | – | > 100 µM (inactive) | > 100 µM (inactive) | > 100 µM (inactive)
5 | COc1ccccc1C1C(C(=O)Nc2ccccc2)=C(C)NC(C)=C1C(=O)Nc1ccccc1 | 7.45 µM (inactive) | > 100 µM (inactive) | 89.5 µM (inactive) | – | – | 19.5 µM (inactive) | – | 40.6 µM (inactive) | 44.2 µM (inactive) | 91 µM (inactive) | 53 µM (inactive) | – | 84.1 µM (inactive) | 34.4 µM (inactive) | 83.2 µM (inactive) | > 100 µM (inactive) | – | 91.4 µM (inactive) | 65.8 µM (inactive) | > 100 µM (inactive)
6 | O=[N+]([O-])c1ccc(C2N3CCCCC3[C@H]3CCCCN23)cc1 (stereo partly specified) | > 100 µM (inactive) | – | > 100 µM (inactive) | – | – | > 100 µM (inactive) | > 100 µM (inactive) | > 100 µM (inactive) | > 100 µM (inactive) | > 100 µM (inactive) | > 100 µM (inactive) | > 100 µM (inactive) | > 100 µM (inactive) | > 100 µM (inactive) | > 100 µM (inactive) | > 100 µM (inactive) | – | > 100 µM (inactive) | > 100 µM (inactive) | > 100 µM (inactive)
7 | O=Cn1c2ccccc2c2ccccc21 | > 100 µM (inactive) | > 100 µM (inactive) | > 100 µM (inactive) | – | – | > 100 µM (inactive) | > 100 µM (inactive) | > 100 µM (inactive) | > 100 µM (inactive) | > 100 µM (inactive) | – | > 100 µM (inactive) | > 100 µM (inactive) | > 100 µM (inactive) | > 100 µM (inactive) | > 100 µM (inactive) | – | > 100 µM (inactive) | > 100 µM (inactive) | 9.64 µM (inactive)
8 | Cn1c(-c2cccs2)cc(-c2cccs2)c1-c1cccs1 | 38.5 µM (inactive) | 37.8 µM (inactive) | > 100 µM (inactive) | 98.9 µM (inactive) | 2.82 µM (inactive) | 20.4 µM (inactive) | 13.6 µM (inactive) | 11.9 µM (inactive) | > 100 µM (inactive) | > 100 µM (inactive) | > 100 µM (inactive) | > 96.6 µM (inactive) | 43.8 µM (inactive) | 51.8 µM (inactive) | 35.8 µM (inactive) | > 100 µM (inactive) | > 100 µM (inactive) | 39.2 µM (inactive) | 34.6 µM (inactive) | –
9 | NC(=O)NNC(=O)CCn1[nH]c(=O)c(Cl)c(Cl)c1=O | – | > 100 µM (inactive) | > 100 µM (inactive) | – | – | – | – | > 100 µM (inactive) | > 100 µM (inactive) | > 100 µM (inactive) | > 100 µM (inactive) | > 100 µM (inactive) | > 100 µM (inactive) | > 100 µM (inactive) | > 100 µM (inactive) | > 100 µM (inactive) | – | > 100 µM (inactive) | > 100 µM (inactive) | > 100 µM (inactive)
10 | O=c1onc2c3ccccc3ncn12 | > 100 µM (inactive) | > 100 µM (inactive) | > 100 µM (inactive) | > 100 µM (inactive) | > 100 µM (inactive) | > 100 µM (inactive) | > 100 µM (inactive) | > 100 µM (inactive) | > 100 µM (inactive) | > 100 µM (inactive) | > 100 µM (inactive) | > 100 µM (inactive) | > 100 µM (inactive) | > 100 µM (inactive) | > 100 µM (inactive) | > 100 µM (inactive) | > 100 µM (inactive) | > 100 µM (inactive) | > 100 µM (inactive) | –
11 | CC(C)NC(=O)OCc1nnn2c1C(OC(=O)NC(C)C)CC2 (stereo unspecified) | > 100 µM (inactive) | > 100 µM (inactive) | > 100 µM (inactive) | – | – | > 100 µM (inactive) | > 100 µM (inactive) | > 100 µM (inactive) | > 100 µM (inactive) | > 100 µM (inactive) | > 100 µM (inactive) | > 100 µM (inactive) | > 100 µM (inactive) | > 100 µM (inactive) | – | > 100 µM (inactive) | – | > 100 µM (inactive) | > 100 µM (inactive) | > 100 µM (inactive)
12 | Cc1c2c(cc3c1C(=O)C(=O)C1=C3OC[C@@H]1C)C(C)(C)CCC2 | 12.4 µM (inactive) | 20.4 µM (inactive) | 26.5 µM (inactive) | – | – | – | 11.6 µM (inactive) | 13.2 µM (inactive) | 21.3 µM (inactive) | 21.5 µM (inactive) | – | 13 µM (inactive) | 13.9 µM (inactive) | 19.7 µM (inactive) | 7.43 µM (inactive) | 22.1 µM (inactive) | – | 20.9 µM (inactive) | 13.8 µM (inactive) | 17.1 µM (inactive)
13 | Fc1ccc(C(OCCN2CCN(CCCCl)CC2)c2ccc(F)cc2)cc1 | 19.9 µM (inactive) | 18.5 µM (inactive) | 36.7 µM (inactive) | 26.5 µM (inactive) | 21.6 µM (inactive) | 20.8 µM (inactive) | 18.8 µM (inactive) | 19.1 µM (inactive) | 12.5 µM (inactive) | 23.1 µM (inactive) | 20.5 µM (inactive) | 35.5 µM (inactive) | 25.8 µM (inactive) | 26 µM (inactive) | 16.8 µM (inactive) | 37.6 µM (inactive) | 34.8 µM (inactive) | 41.1 µM (inactive) | 19.5 µM (inactive) | –
14 | COc1ccc(C2C(Cl)C(=O)N2n2cnc3ccccc3c2=O)cc1 (stereo unspecified) | 51.3 µM (inactive) | > 100 µM (inactive) | 98.6 µM (inactive) | – | – | 33.4 µM (inactive) | 33 µM (inactive) | > 100 µM (inactive) | – | > 100 µM (inactive) | > 100 µM (inactive) | > 100 µM (inactive) | 85.7 µM (inactive) | > 100 µM (inactive) | 77.6 µM (inactive) | > 100 µM (inactive) | – | 50.7 µM (inactive) | 54.6 µM (inactive) | 24.2 µM (inactive)
15 | CCc1nc(N)nc(N)c1-c1ccc(N2CCNCC2)c([N+](=O)[O-])c1 | 5.65 µM (inactive) | 11.5 µM (inactive) | > 100 µM (inactive) | 26.5 µM (inactive) | 12.4 µM (inactive) | 29.5 µM (inactive) | 4.35 µM (inactive) | 6.08 µM (inactive) | 27.4 µM (inactive) | 30.3 µM (inactive) | 65.9 µM (inactive) | 3.09 µM (inactive) | 35.3 µM (inactive) | 7.55 µM (inactive) | 3.48 µM (inactive) | 41.5 µM (inactive) | 5.28 µM (inactive) | 23.8 µM (inactive) | 1.77 µM (inactive) | –
16 | CC1=C(O)C(=O)C=C2C1=CC=C1[C@@]2(C)CC[C@@]2(C)[C@@H]3C[C@](C)(C(=O)O)CC[C@]3(C)CC[C@]12C [CELASTROL] | 0.0124 µM (active) | 0.0306 µM (active) | < 0.0105 µM (active) | 0.021 µM (active) | 0.0818 µM (active) | < 0.0136 µM (active) | < 0.01 µM (active) | 0.0237 µM (active) | 0.0101 µM (active) | 0.18 µM (active) | 0.16 µM (active) | 0.422 µM (active) | 0.0264 µM (active) | 0.0178 µM (active) | 0.0182 µM (active) | 0.0757 µM (active) | 0.0393 µM (active) | 0.0471 µM (active) | 0.0221 µM (active) | –
